Source: patent US9994551B2, “Pyridazine derivatives as RORc modulators” (Genentech, Inc., priority 2015, dated 2018)

Target: T1, RORc ligand binding domain (Homo sapiens, UniProt P51449)
T1 construct: host or cells: E. coli
T1 sequence (P51449 269-508 limits assumed): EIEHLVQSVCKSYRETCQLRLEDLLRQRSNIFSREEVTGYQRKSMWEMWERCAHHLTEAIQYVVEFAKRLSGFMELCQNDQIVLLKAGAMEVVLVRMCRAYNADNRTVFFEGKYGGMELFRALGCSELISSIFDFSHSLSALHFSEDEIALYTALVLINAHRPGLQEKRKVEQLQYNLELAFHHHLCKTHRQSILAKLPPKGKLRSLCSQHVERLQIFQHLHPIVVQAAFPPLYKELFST
Test: In vitro RORc ligand binding assay (25-[3H]hydroxycholesterol displacement, filter binding)

SMILES	IC50 [nM]
CC1(C)[C@H]2CC[C@]1([C@@H]1CN(C(=O)c3ccc(=O)[nH]n3)CCO1)c1nnc(-c3c(F)cccc3F)cc12 [Compound 89, 6-((R)-2-((5R,8R)-3-(2,6-difluorophenyl)-9,9-dimethyl-5,6,7,8-tetrahydro-5,8-methanocinnolin-8-yl)morpholine-4-carbonyl)pyridazin-3(2H)-one]	237
CC1(C)[C@H]2CC[C@]1([C@@H]1CN(c3ccccn3)CCO1)c1nnc(-c3c(F)cccc3F)cc12 [Compound 79, (R)-2-((5R,8R)-3-(2,6-difluorophenyl)-9,9-dimethyl-5,6,7,8-tetrahydro-5,8-methanocinnolin-8-yl)-4-(pyridin-2-yl)morpholine]	412
CC1(C)[C@H]2CC[C@]1(OCc1ncccn1)c1nnc(-c3c(F)cccc3F)cc12 [Compound 13, (5S,8R)-3-(2,6-difluorophenyl)-9,9-dimethyl-8-(pyrimidin-2-ylmethoxy)-5,6,7,8-tetrahydro-5,8-methanocinnoline]	515
CN1CCO[C@@H]([C@@]23CC[C@@H](c4cc(-c5c(F)cccc5F)nnc42)C3(C)C)C1 [Compound 71, (S)-2-((5R,8R)-3-(2,6-difluorophenyl)-9,9-dimethyl-5,6,7,8-tetrahydro-5,8-thanocinnolin-8-yl)-4-methylmorpholine]	375
CC1(C)[C@H]2CC[C@]1([C@@H]1CN(C(=O)c3cnco3)CCO1)c1nnc(-c3c(F)cccc3F)cc12 [Compound 90, ((R)-2-((5R,8R)-3-(2,6-difluorophenyl)-9,9-dimethyl-5,6,7,8-tetrahydro-5,8-methanocinnolin-8-yl)morpholino)(oxazol-5-yl)methanone]	74.5
CC1(C)[C@H]2CC[C@]1([C@@H]1CN(C(=O)C(O)CO)CCO1)c1nnc(-c3c(F)cccc3F)cc12 (stereo partly drawn) [Compound 78, 1-((R)-2-((5R,8R)-3-(2,6-difluorophenyl)-9,9-dimethyl-5,6,7,8-tetrahydro-5,8-methanocinnolin-8-yl)morpholino)-2,3-dihydroxypropan-1-one]	213
Cc1cc(O[C@@]23CC[C@@H](c4cc(-c5c(F)cccc5F)nnc42)C3(C)C)ccn1 [Compound 25, (5S,8R)-3-(2,6-difluorophenyl)-9,9-dimethyl-8-((2-methylpyridin-4-yl)oxy)-5,6,7,8-tetrahydro-5,8-methanocinnoline]	844
CC(CO)NC(=O)N1CCO[C@H]([C@@]23CC[C@@H](c4cc(-c5c(F)cccc5F)nnc42)C3(C)C)C1 (stereo in doubt) [Compound 141, 2-[5-(2,6-difluorophenyl)-11,11-dimethyl-3,4-diazatricyclo[6.2.1.02,7]undeca-2,4,6-trien-1-yl]-N-(2-hydroxy-1-methyl-ethyl)morpholine-4-carboxamide]	9.5
CC1(C)[C@H]2CC[C@]1(Oc1cncc(C(=O)NCCO)n1)c1nnc(-c3c(F)cccc3F)cc12 [Compound 30, 6-(((5S,8R)-3-(2,6-difluorophenyl)-9,9-dimethyl-5,6,7,8-tetrahydro-5,8-methanocinnolin-8-yl)oxy)-N-(2-hydroxyethyl)pyrazine-2-carboxamide]	836
Cc1nc(N2CCO[C@H]([C@@]34CC[C@@H](c5cc(-c6c(F)cccc6F)nnc53)C4(C)C)C2)n(Cc2ccccc2)n1 [Compound 143, 4-(2-benzyl-5-methyl-1,2,4-triazol-3-yl)-2-[5-(2,6-difluorophenyl)-11,11-dimethyl-3,4-diazatricyclo[6.2.1.02,7]undeca-2,4,6-trien-1-yl]morpholine]	5.6
CC1(C)[C@H]2CC[C@]1(Oc1cncnc1)c1nnc(-c3c(F)cccc3F)cc12 [Compound 28, (5S,8R)-3-(2,6-difluorophenyl)-9,9-dimethyl-8-(pyrimidin-5-yloxy)-5,6,7,8-tetrahydro-5,8-methanocinnoline]	185
CN(C)C(=O)N1CCO[C@H]([C@@]23CC[C@@H](c4cc(-c5c(F)cccc5F)nnc42)C3(C)C)C1 [Compound 88, (R)-2-((5R,8R)-3-(2,6-difluorophenyl)-9,9-dimethyl-5,6,7,8-tetrahydro-5,8-methanocinnolin-8-yl)-N,N-dimethylmorpholine-4-carboxamide]	369
CC1(C)[C@H]2CC[C@]1([C@H]1CCCN(c3cc[nH]c(=O)c3)C1)c1nnc(-c3c(F)cccc3F)cc12 [Compound 172, 4-[3-[5-(2,6-difluorophenyl)-11,11-dimethyl-3,4-diazatricyclo[6.2.1.02,7]undeca-2,4,6-trien-1-yl]-1-piperidyl]-1H-pyridin-2-one]	20
CC1(C)[C@H]2CC[C@]1([C@H]1CCCN(C(=O)NC3CC(O)C3)C1)c1nnc(-c3c(F)cccc3F)cc12 (stereo in doubt) [Compound 148, 3-[5-(2,6-difluorophenyl)-11,11-dimethyl-3,4-diazatricyclo[6.2.1.02,7]undeca-2,4,6-trien-1-yl]-N-(3-hydroxycyclobutyl)piperidine-1-carboxamide]	370
Cc1n[nH]c(C(=O)N2CCO[C@@H]([C@@]34CC[C@@H](c5cc(-c6c(F)cccc6F)nnc53)C4(C)C)C2)n1 [Compound 117, [2-[5-(2,6-difluorophenyl)-11,11-dimethyl-3,4-diazatricyclo[6.2.1.02,7]undeca-2,4,6-trien-1-yl]morpholin-4-yl]-(3-methyl-1H-1,2,4-triazol-5-yl)methanone]	13
CC[C@@H](O[C@]12CC[C@H](c3cc(-c4c(F)cccc4F)nnc31)C2(C)C)C(=O)O [Compound 113, (2R)-2-[[(1S,8R)-5-(2,6-difluorophenyl)-11,11-dimethyl-3,4-diazatricyclo[6.2.1.02,7]undeca-2,4,6-trien-1-yl]oxy]butanoic acid]	47
CC[C@@H](O[C@@]12CC[C@@H](c3cc(-c4c(F)cccc4F)nnc31)C2(C)C)C(N)=O [Compound 31, (R)-2-(((5S,8R)-3-(2,6-difluorophenyl)-9,9-dimethyl-5,6,7,8-tetrahydro-5,8-methanocinnolin-8-yl)oxy)butanamide]	8.8
CC1(C)[C@H]2CC[C@]1([C@H]1CCCN(c3cccc(=O)[nH]3)C1)c1nnc(-c3c(F)cccc3F)cc12 [Compound 174, 6-[3-[5-(2,6-difluorophenyl)-11,11-dimethyl-3,4-diazatricyclo[6.2.1.02,7]undeca-2,4,6-trien-1-yl]-1-piperidyl]-1H-pyridin-2-one]	36
CC1(C)[C@H]2CC[C@]1([C@H]1CN(S(C)(=O)=O)CCO1)c1nnc(-c3c(F)cccc3F)cc12 [Compound 73, (S)-2-((5R,8R)-3-(2,6-difluorophenyl)-9,9-dimethyl-5,6,7,8-tetrahydro-5,8-methanocinnolin-8-yl)-4-(methylsulfonyl)morpholine]	1030
CC1(C)[C@H]2CC[C@]1([C@@H]1CN(c3ncn[nH]3)CCO1)c1nnc(-c3c(F)cccc3F)cc12 [Compound 155, 2-[5-(2,6-difluorophenyl)-11,11-dimethyl-3,4-diazatricyclo[6.2.1.02,7]undeca-2,4,6-trien-1-yl]-4-(1H-1,2,4-triazol-5-yl)morpholine]	60
C[C@H](O[C@@]12CC[C@@H](c3cc(-c4c(F)cccc4F)nnc31)C2(C)C)C(N)=O [Compound 43, (S)-2-(((5S,8R)-3-(2,6-difluorophenyl)-9,9-dimethyl-5,6,7,8-tetrahydro-5,8-methanocinnolin-8-yl)oxy)propanamide]	300
CC1(C)[C@H]2CC[C@]1([C@H]1CCCN(c3cnccn3)C1)c1nnc(-c3c(F)cccc3F)cc12 [Compound 165, 5-(2,6-difluorophenyl)-11,11-dimethyl-1-(1-pyrazin-2-yl-3-piperidyl)-3,4-diazatricyclo[6.2.1.02,7]undeca-2,4,6-triene]	24
CC(C)(C)OC(=O)N1CCN[C@H]([C@@]23CC[C@@H](c4cc(-c5c(F)cccc5F)nnc42)C3(C)C)C1 [Compound 62, (R)-tert-butyl 3-((5R,8S)-3-(2,6-difluorophenyl)-9,9-dimethyl-5,6,7,8-tetrahydro-5,8-methanocinnolin-8-yl)piperazine-1-carboxylate]	136
CC[C@H](O[C@@]12CC[C@@H](c3cc(-c4c(F)cccc4F)nnc31)C2(C)C)C(=O)NCCS(C)(=O)=O [Compound 26, (S)-2-(((5S,8R)-3-(2,6-difluorophenyl)-9,9-dimethyl-5,6,7,8-tetrahydro-5,8-methanocinnolin-8-yl)oxy)-N-(2-(methylsulfonyl)ethyl)butanamide]	42.7
CCO[C@@]12CC[C@@H](c3cc(-c4c(F)cccc4F)nnc31)C2(C)C [Compound 7, (5S,8R)-3-(2,6-difluorophenyl)-8-ethoxy-9,9-dimethyl-5,6,7,8-tetrahydro-5,8-methanocinnoline]	9.3
CC1(C)[C@H]2CC[C@]1(OC1(CC(N)=O)CC1)c1nnc(-c3c(F)cccc3F)cc12 [Compound 46, 2-(1-(((5S,8R)-3-(2,6-difluorophenyl)-9,9-dimethyl-5,6,7,8-tetrahydro-5,8-methanocinnolin-8-yl)oxy)cyclopropyl)acetamide]	74.8
CC[C@@H](O[C@@]12CC[C@@H](c3cc(-c4c(F)cccc4F)nnc31)C2(C)C)c1nnc(C)o1 [Compound 20, 2-((R)-1-(((5S,8R)-3-(2,6-difluorophenyl)-9,9-dimethyl-5,6,7,8-tetrahydro-5,8-methanocinnolin-8-yl)oxy)propyl)-5-methyl-1,3,4-oxadiazole]	24.1
CN1CCN[C@H]([C@@]23CC[C@@H](c4cc(-c5c(F)cccc5F)nnc42)C3(C)C)C1 [Compound 183, 5-(2,6-difluorophenyl)-11,11-dimethyl-1-(4-methylpiperazin-2-yl)-3,4-diazatricyclo[6.2.1.02,7]undeca-2,4,6-triene]	13
C[C@H](O)C(=O)N(C)[C@@]12CC[C@@H](c3cc(-c4c(F)cccc4F)nnc31)C2(C)C [Compound 1, (S)-N-((5R,8R)-3-(2,6-difluorophenyl)-9,9-dimethyl-5,6,7,8-tetrahydro-5,8-methanocinnolin-8-yl)-2-hydroxy-N-methylpropanamide]	920
